“Also recorded” adds a separate entry of the source.
Assays:
ABCA4 null mutant mice = assay: HPR administered to ABCA4 null mutant mice for 28 days; serum retinol, ocular retinoids and A2E; type: in vivo
Experimental: In order to further explore the role of HPR in the visual cycle, the in vivo effects of HPR in mice have been examined. Thus, HPR was administered to ABCA4 null mutant mice (5-20 mg/kg, i.p. in DMSO) for periods of 28 days. Control mice received only the DMSO vehicle. At the end of the treatment period, the concentrations of retinol and HPR in serum and retinoid content in ocular tissues was measured. […] Thus, the calculated percent reduction for each of the measured retinoids, and A2E, was nearly identical (see FIG. 6). […] If systemically-administered HPR inhibits ocular LRAT, then reduction of ocular retinoids and A2E should exceed the reduction in serum retinol.
Genetic crosses of RBP4^−/− mice with ABCA4^−/− mice was undertaken to examine the role of RBP in mediation of retinol levels in serum and ocular tissue.

[1] = HPR administered to wild type mice for 5 days, illumination, then retinoids in serum and ocular tissue; type: in vivo; settings: mouse, ocular tissue, ip, 20 mg/kg i.p. in DMSO, read-out: HPR accumulation within ocular tissues during the treatment period
Experimental: In order to ensure that the observed effects of HPR in ABCA4 null mice were not due to the genetic mutation, HPR (20 mg/kg, i.p. in DMSO) was administered to wild type mice for 5 days. Control mice received only the DMSO vehicle. On the final day of HPR treatment, the mice were exposed to constant illumination (1000 lux for 10 min) order “stimulate” the visual cycle to generate visual chromophore. Immediately following the illumination period, the animals were sacrificed and the concentrations of retinoids in serum and ocular tissue were determined. […] As in the previous study, HPR caused a significant reduction in serum retinol (˜55%), ocular retinol (˜40%) and ocular retinal (˜30%). Although HPR did accumulate within ocular tissues during the treatment period (˜5 μM), no effect on LRAT or Rpe65/isomerase activities was observed.

retinol-RBP-TTR complex = target: T1, retinol-RBP-TTR complex (Homo sapiens, UniProt P02753); assay: High-throughput FRET assay for detection of RBP/TTR interaction (Alexa430-TTR); type: binding; settings: for inhibition of RBP-TTR interaction in high throughput assay: 384-well format, varied concentrations 0-4 μM, conditions of Example 7
T1 construct: purchased Sigma Chemical Co. (TTR only)
From the text: Reduction of serum retinol and RBP are correlated with concomitant reductions in toxic lipofliscin fluorophores. Because compounds that affect RBP-TTR interaction will directly affect fluorophore levels in the eye, a high-throughput screen for small molecules which prevent interaction of RBP with TTR was developed. This screen employs probe-labeled forms of RBP and TTR which participate in a unique fluorescence resonance energy transfer (FRET) event when complexed. Compounds which interfere with RBP-TTR interaction prevent FRET. […] The sample is incubated at 37° C. for 30 min and then illuminated with 330 nm light. The emission spectra are shown in the range of 400-600 nm. HPR binds to RBP and prevents interaction with TTR, and here this property of HPR is utilized here to validate the ability of this screen to detect inhibition of RBP-TTR interaction. […] Additionally, the design of this assay permits discrimination between compounds which interact with RBP versus those which interact with TTR. Thus, by using two distinct excitation energies (280 nm and 330 nm, for protein and retinol, respectively) and implementing simultaneous monitoring of the retinol and TTR-probe fluorescence, the “target” of a presumptive small molecule can be easily determined.
In order to facilitate screening of large numbers of test compounds, the RBP-TTR assay has been adapted to a 384-well plate format. This transition required re-evaluation of the reagent concentrations and minimal assay volume for maintaining solubility and detection sensitivity. Under the 384-well plate format, the assay can be efficiently performed in a 50 μl volume using 0.5 μM apo-RBP, 0.5 μM TTR, 2-8 μM test compound and 1 μM retinol. The microplate with minimal fluorescence background, best optical clarity and most appropriate well design was determined to be Corning's model #3711.
Accordingly, HPR was employed at varied concentrations (from 0-4 μM), using the conditions specified in Example 7, to evaluate the high throughput assay.
The mechanism of action underlying this effect can be explained by the disruption of RBP-TTR interactions. In order to explore this possibility and to further validate the RBP-TTR screen, the effects of all-trans retinoic and 13-cis retinoic acid, using the conditions the conditions specified for analysis of HPR, were examined.

LRAT = target: T2, LRAT (Homo sapiens, UniProt O95237); assay: In vitro analyses of LRAT activity; type: biochemical; settings: HPR pre-incubated with enzyme source material
T2 sequence (O95237 1-230): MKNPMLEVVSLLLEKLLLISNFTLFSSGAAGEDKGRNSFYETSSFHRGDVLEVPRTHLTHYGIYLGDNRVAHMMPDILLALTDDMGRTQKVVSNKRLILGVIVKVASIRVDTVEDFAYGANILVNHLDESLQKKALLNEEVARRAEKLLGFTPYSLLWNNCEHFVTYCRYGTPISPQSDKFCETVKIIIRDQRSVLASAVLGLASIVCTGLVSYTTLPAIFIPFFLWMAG

serum retinol and RBP = settings: cited from earlier work; for reduction in circulating RBP and circulating retinol in vivo: literature (several investigators; Berni et al. 1993)
RBP-TTR interaction = RBP-TTR interaction (Homo sapiens, UniProt P02753); settings: literature (Malpeli et al.; Holven et al.; Radu et al.); cited from earlier work
[2] = 5-20 mg/kg i.p. in DMSO, 28 days

In the case of CC1=C(/C=C/C(C)=C/C=C/C(C)=C/C(=O)Nc2ccc(O)cc2)C(C)(C)CCC1 [HPR, N-(4-hydroxyphenyl)retinamide], the “reductions in A2E” value (ABCA4 null mutant mice; [2]) was “commensurate reductions”, the “reductions in ocular retinoids” value (ABCA4 null mutant mice; [2]) was “commensurate reductions” and the “reductions in serum retinol as a function of increasing serum HPR” value (ABCA4 null mutant mice; [2]) was “Profound reductions”. For the same compound, the “effect on visual cycle proteins (e.g., LRAT) when administered systemically” value (ABCA4 null mutant mice; systemic administration) was “limited effect”, the concentration at 5 days [1] was roughly 5 µM and the “retinol and TTR-probe fluorescence (loss of complexation)” value (retinol-RBP-TTR complex; 1 μM HPR, 0.5 μM unlabeled RBP + 0.5 μM Alexa430-TTR, 37° C., 30 min, 330 nm excitation) was “significantly reduced”. The “inhibition of RBP-TTR interaction in high throughput assay” value (“inhibition of RBP-TTR interaction” for short) (retinol-RBP-TTR complex) was “inhibit RBP-TTR interaction”, the “LRAT activity in vitro” value (LRAT) was “inhibition of LRAT activity” and the “reductions in serum retinol and RBP” value (serum retinol and RBP; literature (Formelli et al.; Torrisi et al.)) was “profound reductions”. The “reduction in circulating RBP and circulating retinol in vivo” value (“reduction … in vivo” below) (serum retinol and RBP) was “established in vivo” and the “interaction of TTR with RBP in vitro” value (RBP-TTR interaction) was “interferes with the normal interaction of TTR with RBP; also recorded: effective inhibitor”.
In the case of CC1=C(/C=C/C(C)=C/C=C/C(C)=C\C(=O)O)C(C)(C)CCC1 [13-cis retinoic acid, 13-cis-retinoic acid], the “inhibition of RBP-TTR interaction” value (retinol-RBP-TTR complex) is listed as “entirely consistent with the in vivo data” and the “reduction … in vivo” value (serum retinol and RBP) is listed as “observed in vivo”.
For CC1=C(/C=C/C(C)=C/C=C/C(C)=C/C(=O)O)C(C)(C)CCC1 [all-trans retinoic acid, all-trans-retinoic acid], the “inhibition of RBP-TTR interaction” value (retinol-RBP-TTR complex) is given as “entirely consistent with the in vivo data” and the “reduction … in vivo” value (serum retinol and RBP) is given as “observed in vivo”.
